Reference: the C3SDB collision cross section collection

Settings: [M+H]+; instrument: DT; stepped-field

Structure (SMILES)	collision cross section (N2) [Å²]
CC(=O)NCCCCN [N-Acetylputrescine]	131.7
CN(C)C(=O)Nc1cccc(C(F)(F)F)c1 [Fluometuron]	152.2
NCCc1c[nH]c2ccc(O)cc12 [Serotonin]	151.9
NC(=O)CC[C@H](NC(=O)Cc1ccccc1)C(=O)O [Phenylacetyl L-Glutamine]	160.93
CC1(C)S[C@@H]2[C@H](NC(=O)[C@H](N)c3ccccc3)C(=O)N2[C@H]1C(=O)O [Ampicillin]	193.17
Cc1ccc2ccccc2c1 [2-methylnaphthalene]	124.57
CCCCC/C=C\C/C=C\C/C=C\C/C=C\CCCCCC(=O)O [Adrenic Acid]	189.41
C[N+](C)(C)CCOP(=O)(O)O [Phosphocholine]	138.54

Now from value to molecule:

collision cross section (N2) [Å²]	Structure (SMILES)
240.62	C[C@@H]1O[C@@H](O[C@H]2[C@H](Oc3cc(O)c4c(c3)O[C@H](c3ccc(O)cc3)CC4=O)O[C@H](CO)[C@@H](O)[C@@H]2O)[C@H](O)[C@H](O)[C@H]1O [Naringin]
236.2	C[C@@H]1O[C@@H](OC[C@H]2O[C@@H](Oc3c(-c4ccc(O)c(O)c4)oc4cc(O)cc(O)c4c3=O)[C@H](O)[C@@H](O)[C@@H]2O)[C@H](O)[C@H](O)[C@H]1O [Rutin]
155.97	Cn1cncc1C[C@H](NC(=O)CCN)C(=O)O [L-Anserine]
162.1	C[C@H]1O[C@@H](n2cnc3c(N)ncnc32)[C@H](O)[C@@H]1O [5'-Deoxyadenosine]

Same assay, conditions: [M+Na]+; instrument: DT; stepped-field

Structure (SMILES)	collision cross section (N2) [Å²]
O=C(COP(=O)(O)O)[C@@H](O)[C@H](O)[C@H](O)CO [Fructose-1-phosphate]	159.68
CC(=O)NCCCCN [N-Acetylputrescine]	137.57
CCCCC/C=C\C[C@H](O)/C=C/C=C\C/C=C\CCCC(=O)O [12S-HETE]	193.33
CN(C)C(=O)Nc1cccc(C(F)(F)F)c1 [Fluometuron]	161.2
NCCc1c[nH]c2ccc(O)cc12 [Serotonin]	150.8
NC(=O)CC[C@H](NC(=O)Cc1ccccc1)C(=O)O [Phenylacetyl L-Glutamine]	171.25
CC1(C)S[C@@H]2[C@H](NC(=O)[C@H](N)c3ccccc3)C(=O)N2[C@H]1C(=O)O [Ampicillin]	187.93
CCCCC/C=C\C/C=C\C/C=C\C/C=C\CCCCCC(=O)O [Adrenic Acid]	192.83
CCCCC/C=C\C[C@@H](O)/C=C/C=C/C=C\[C@@H](O)CCCC(=O)O [Leukotriene B4]	196.05

Further lines, results first:

collision cross section (N2) [Å²]	Structure (SMILES)
234.02	C[C@@H]1O[C@@H](O[C@H]2[C@H](Oc3cc(O)c4c(c3)O[C@H](c3ccc(O)cc3)CC4=O)O[C@H](CO)[C@@H](O)[C@@H]2O)[C@H](O)[C@H](O)[C@H]1O [Naringin]
158.41	Nc1ccn([C@H]2C[C@H](O)[C@@H](CO)O2)c(=O)n1 [Deoxycytidine]
178.66	OC[C@H]1O[C@@H](O[C@H]2[C@H](O)[C@@H](O)[C@H](O)O[C@@H]2CO)[C@H](O)[C@@H](O)[C@@H]1O [Cellobiose]
141.93	OCC1(O)OC[C@@H](O)[C@@H](O)[C@@H]1O (stereo partly drawn) [D-Fructose]
251.61	C[C@@H]1O[C@@H](OC[C@H]2O[C@@H](Oc3c(-c4ccc(O)c(O)c4)oc4cc(O)cc(O)c4c3=O)[C@H](O)[C@@H](O)[C@@H]2O)[C@H](O)[C@H](O)[C@H]1O [Rutin]
159.77	Cn1cncc1C[C@H](NC(=O)CCN)C(=O)O [L-Anserine]
171.99	C[C@H]1O[C@@H](n2cnc3c(N)ncnc32)[C@H](O)[C@@H]1O [5'-Deoxyadenosine]
154.76	CC(=O)N[C@@H]1C(O)O[C@H](CO)[C@@H](O)[C@@H]1O (stereo partly drawn) [N-Acetyl-D-mannosamine]
191.96	C=C[C@H]1[C@H](O[C@@H]2O[C@H](CO)[C@@H](O)[C@H](O)[C@H]2O)OC=C(C(=O)OC)[C@H]1CC=O [Secologanin]

Settings: [M+H]+; instrument: DT; single field, calibrated with Agilent tune mix (Agilent)

collision cross section (N2) [Å²]	Structure (SMILES)
237.5	C[C@@H]1O[C@@H](O[C@H]2[C@H](Oc3cc(O)c4c(c3)O[C@H](c3ccc(O)cc3)CC4=O)O[C@H](CO)[C@@H](O)[C@@H]2O)[C@H](O)[C@H](O)[C@H]1O [Naringin]
128.3	CC(=O)NCCCCN [N-Acetylputrescine]
232.6	C[C@@H]1O[C@@H](OC[C@H]2O[C@@H](Oc3c(-c4ccc(O)c(O)c4)oc4cc(O)cc(O)c4c3=O)[C@H](O)[C@@H](O)[C@@H]2O)[C@H](O)[C@H](O)[C@H]1O [Rutin]
154.1	Cn1cncc1C[C@H](NC(=O)CCN)C(=O)O [L-Anserine]

Same assay, conditions: [M+Na]+; instrument: DT; single field, calibrated with Agilent tune mix (Agilent)

collision cross section (N2) [Å²]	Structure (SMILES)
155.4	O=C(COP(=O)(O)O)[C@@H](O)[C@H](O)[C@H](O)CO [Fructose-1-phosphate]
154.5	Nc1ccn([C@H]2C[C@H](O)[C@@H](CO)O2)c(=O)n1 [Deoxycytidine]
178.1	OC[C@H]1O[C@@H](O[C@H]2[C@H](O)[C@@H](O)[C@H](O)O[C@@H]2CO)[C@H](O)[C@@H](O)[C@@H]1O [Cellobiose]
141.4	OCC1(O)OC[C@@H](O)[C@@H](O)[C@@H]1O (stereo partly drawn) [D-Fructose]
166.8	C[C@H]1O[C@@H](n2cnc3c(N)ncnc32)[C@H](O)[C@@H]1O [5'-Deoxyadenosine]

Same assay, conditions: [M-H]-; instrument: DT; single field, calibrated with Agilent tune mix (Agilent)

Structure (SMILES)	collision cross section (N2) [Å²]
O=C(COP(=O)(O)O)[C@@H](O)[C@H](O)[C@H](O)CO [Fructose-1-phosphate]	141.86
CC(=O)NCCCCN [N-Acetylputrescine]	127.22
NCCc1c[nH]c2ccc(O)cc12 [Serotonin]	135.85

Other lines, results leading:

collision cross section (N2) [Å²]	Structure (SMILES)
146.84	Nc1ccn([C@H]2C[C@H](O)[C@@H](CO)O2)c(=O)n1 [Deoxycytidine]
231.04	C[C@@H]1O[C@@H](OC[C@H]2O[C@@H](Oc3c(-c4ccc(O)c(O)c4)oc4cc(O)cc(O)c4c3=O)[C@H](O)[C@@H](O)[C@@H]2O)[C@H](O)[C@H](O)[C@H]1O [Rutin]
152.32	Cn1cncc1C[C@H](NC(=O)CCN)C(=O)O [L-Anserine]
151.91	C[C@H]1O[C@@H](n2cnc3c(N)ncnc32)[C@H](O)[C@@H]1O [5'-Deoxyadenosine]
